{"source": "ChEMBL document CHEMBL1136348", "about": "“Advances toward new antidepressants beyond SSRIs: 1-aryloxy-3-piperidinylpropan-2-ols with dual 5-HT1A receptor antagonism/SSRI activities. Part 3” (Bioorg Med Chem Lett, 2003)", "key": {"[1]": {"target": "Sodium-dependent serotonin transporter (Rattus norvegicus, UniProt P31652)", "sequence (P31652 whole entry)": "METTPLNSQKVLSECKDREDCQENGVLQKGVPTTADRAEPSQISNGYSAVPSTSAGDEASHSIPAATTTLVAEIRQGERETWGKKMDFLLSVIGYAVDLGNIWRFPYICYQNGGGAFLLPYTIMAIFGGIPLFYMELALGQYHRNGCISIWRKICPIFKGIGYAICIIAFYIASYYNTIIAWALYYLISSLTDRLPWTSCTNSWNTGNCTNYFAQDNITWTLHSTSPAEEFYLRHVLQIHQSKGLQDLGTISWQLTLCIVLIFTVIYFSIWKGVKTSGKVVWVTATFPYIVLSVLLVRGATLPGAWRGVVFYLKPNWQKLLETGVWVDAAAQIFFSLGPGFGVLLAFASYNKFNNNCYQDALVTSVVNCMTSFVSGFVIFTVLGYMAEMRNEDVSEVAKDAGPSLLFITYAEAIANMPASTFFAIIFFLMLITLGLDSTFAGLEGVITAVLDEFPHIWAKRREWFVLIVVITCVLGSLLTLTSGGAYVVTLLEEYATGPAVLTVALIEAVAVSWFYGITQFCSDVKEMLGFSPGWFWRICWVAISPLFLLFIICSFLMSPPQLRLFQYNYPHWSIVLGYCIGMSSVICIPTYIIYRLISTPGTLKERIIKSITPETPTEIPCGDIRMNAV", "assay": "Affinity at the 5-HT reuptake site labeled with [3H]paroxetine using rat frontal cortex membranes", "format": "tissue-based, Membrane"}, "[2]": {"target": "T1, 5-hydroxytryptamine receptor 1A (Homo sapiens) (UniProt P08908)", "T1 sequence (whole entry)": "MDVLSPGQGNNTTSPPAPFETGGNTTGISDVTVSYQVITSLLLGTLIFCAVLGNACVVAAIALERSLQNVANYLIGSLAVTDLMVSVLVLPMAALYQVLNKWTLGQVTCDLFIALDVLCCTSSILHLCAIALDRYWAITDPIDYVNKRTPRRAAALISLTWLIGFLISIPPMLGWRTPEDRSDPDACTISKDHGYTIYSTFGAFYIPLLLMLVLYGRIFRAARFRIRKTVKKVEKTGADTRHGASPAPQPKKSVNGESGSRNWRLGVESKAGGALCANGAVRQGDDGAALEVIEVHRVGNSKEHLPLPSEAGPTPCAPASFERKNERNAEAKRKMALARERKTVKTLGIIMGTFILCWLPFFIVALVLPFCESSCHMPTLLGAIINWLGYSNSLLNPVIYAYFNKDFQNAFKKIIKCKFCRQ", "assay": "Maximal stimulation of expressed human 5-hydroxytryptamine 1A receptor assayed by [35S]GTP-gamma-S, binding", "format": "functional"}, "[3]": {"target": "T2, 5-hydroxytryptamine receptor 1A (Homo sapiens, UniProt P08908)", "T2 sequence (P08908 whole entry)": "T1 sequence (whole entry)", "assay": "Binding affinity towards 5-hydroxytryptamine 1A receptor in human using [3H]8-OH-DPAT as radioligand"}}, "data": [{"smiles": "Cc1cc2c(OC[C@@H](O)CN3CC[C@@H](c4cc5cc(F)ccc5s4)C[C@@H]3C)cccc2[nH]1", "values": [{"measurement": "Ki", "setting": "[1]", "value": 0.24, "unit": "nM"}, {"measurement": "Emax", "setting": "[2]", "value": 9.05, "unit": "%"}, {"measurement": "Ki", "setting": "[3]", "value": 5.65, "unit": "nM"}]}, {"smiles": "COc1cccc2sc([C@@H]3C[C@H]4CC[C@@H](C3)N4C[C@H](O)COc3cccc4[nH]ccc34)cc12", "values": [{"measurement": "Emax", "setting": "[2]", "value": 7.22, "unit": "%"}]}, {"smiles": "Cc1ccc2cc([C@@H]3CCN(C[C@H](O)COc4cccc5[nH]c(C)cc45)[C@@H](C)C3)sc2c1", "values": [{"measurement": "Ki", "setting": "[1]", "value": 1.28, "unit": "nM"}]}, {"smiles": "COc1cccc2sc([C@H]3CCN(C[C@H](O)COc4cccc5oc(C)cc45)[C@@H](C)C3)cc12", "values": [{"measurement": "Ki", "setting": "[1]", "value": 76.1, "unit": "nM"}]}, {"smiles": "COc1cc(OC)c2cc([C@@H]3CCN(C[C@H](O)COc4cccc5[nH]c(C)cc45)[C@@H](C)C3)sc2c1", "values": [{"measurement": "Ki", "setting": "[1]", "value": 2.79, "unit": "nM"}, {"measurement": "Emax", "setting": "[2]", "value": 7.62, "unit": "%"}, {"measurement": "Ki", "setting": "[3]", "value": 23.1, "unit": "nM"}]}, {"smiles": "COc1cccc2sc([C@H]3CCN(C[C@H](O)COc4cccc5[nH]c(C(N)=O)cc45)[C@H](C)C3)cc12", "values": [{"measurement": "Ki", "setting": "[1]", "value": 1.22, "unit": "nM"}, {"measurement": "Ki", "setting": "[3]", "value": 32, "unit": "nM"}]}, {"smiles": "COc1cccc2sc([C@@H]3C[C@H]4CC[C@@H](C3)N4C[C@H](O)COc3cccc4[nH]c(C(N)=O)cc34)cc12", "values": [{"measurement": "Ki", "setting": "[1]", "value": 0.37, "unit": "nM"}, {"measurement": "Emax", "setting": "[2]", "value": 11.3, "unit": "%"}, {"measurement": "Ki", "setting": "[3]", "value": 12.4, "unit": "nM"}]}, {"smiles": "COc1cccc2sc([C@H]3CCN(C[C@H](O)COc4cccc5[nH]c(C(N)=O)cc45)[C@@H](C)C3)cc12", "values": [{"measurement": "Ki", "setting": "[1]", "value": 6.61, "unit": "nM"}]}, {"smiles": "Cc1cc2c(OC[C@@H](O)CN3CC[C@@H](c4cc5cccc(F)c5s4)C[C@H]3C)cccc2[nH]1", "values": [{"measurement": "Ki", "setting": "[1]", "value": 34.4, "unit": "nM"}, {"measurement": "Ki", "setting": "[3]", "value": 2.12, "unit": "nM"}]}, {"smiles": "COc1cccc2sc([C@H]3CCN(C[C@H](O)COc4cccc5oc(C)cc45)[C@H](C)C3)cc12", "values": [{"measurement": "Ki", "setting": "[1]", "value": 15.2, "unit": "nM"}, {"measurement": "Emax", "setting": "[2]", "value": 6.49, "unit": "%"}, {"measurement": "Ki", "setting": "[3]", "value": 26.8, "unit": "nM"}]}, {"smiles": "COc1cccc2sc([C@@H]3CCN(C[C@H](O)COc4cccc5oc(C)cc45)[C@@H](C)C3)cc12", "values": [{"measurement": "Ki", "setting": "[1]", "value": 38.5, "unit": "nM"}, {"measurement": "Emax", "setting": "[2]", "value": 8.76, "unit": "%"}, {"measurement": "Ki", "setting": "[3]", "value": 4.06, "unit": "nM"}]}, {"smiles": "Cc1cc2c(OC[C@@H](O)CN3CC[C@H](c4cc5cccc(F)c5s4)C[C@H]3C)cccc2[nH]1", "values": [{"measurement": "Ki", "setting": "[1]", "value": 6.06, "unit": "nM"}, {"measurement": "Emax", "setting": "[2]", "value": 6.35, "unit": "%"}, {"measurement": "Ki", "setting": "[3]", "value": 9.8, "unit": "nM"}]}, {"smiles": "COc1cccc2sc([C@@H]3CCN(C[C@H](O)COc4cccc5[nH]c(C)cc45)[C@@H](C)C3)cc12", "values": [{"measurement": "Ki", "setting": "[1]", "value": 0.86, "unit": "nM"}, {"measurement": "Emax", "setting": "[2]", "value": 4.76, "unit": "%"}, {"measurement": "Ki", "setting": "[3]", "value": 14.3, "unit": "nM"}]}, {"smiles": "Cc1cc2c(OC[C@@H](O)CN3CC[C@H](c4cc5cccc(F)c5s4)C[C@@H]3C)cccc2[nH]1", "values": [{"measurement": "Ki", "setting": "[1]", "value": 47.5, "unit": "nM"}, {"measurement": "Ki", "setting": "[3]", "value": 19.4, "unit": "nM"}]}, {"smiles": "Cc1cc2c(OC[C@@H](O)CN3CC[C@@H](c4cc5ccccc5s4)C[C@@H]3C)cccc2[nH]1", "values": [{"measurement": "Ki", "setting": "[1]", "value": 0.53, "unit": "nM"}, {"measurement": "Emax", "setting": "[2]", "value": 6.09, "unit": "%"}, {"measurement": "Ki", "setting": "[3]", "value": 7.11, "unit": "nM"}]}, {"smiles": "Cc1cc2c(OC[C@@H](O)CN3CC[C@@H](c4cc5c(C)cccc5s4)C[C@@H]3C)cccc2[nH]1", "values": [{"measurement": "Ki", "setting": "[1]", "value": 0.62, "unit": "nM"}, {"measurement": "Emax", "setting": "[2]", "value": 6.32, "unit": "%"}, {"measurement": "Ki", "setting": "[3]", "value": 10.5, "unit": "nM"}]}, {"smiles": "Cc1cc2c(OC[C@@H](O)CN3CC[C@@H](c4cc5ccc(F)cc5s4)C[C@@H]3C)cccc2[nH]1", "values": [{"measurement": "Ki", "setting": "[1]", "value": 0.39, "unit": "nM"}, {"measurement": "Emax", "setting": "[2]", "value": 7.26, "unit": "%"}, {"measurement": "Ki", "setting": "[3]", "value": 12.3, "unit": "nM"}]}, {"smiles": "Cc1cc(C)c2cc([C@@H]3CCN(C[C@H](O)COc4cccc5[nH]c(C)cc45)[C@@H](C)C3)sc2c1", "values": [{"measurement": "Ki", "setting": "[1]", "value": 1.99, "unit": "nM"}, {"measurement": "Ki", "setting": "[3]", "value": 105, "unit": "nM"}]}, {"smiles": "Cc1cc2c(OC[C@@H](O)CN3CC[C@@H](c4cc5c(F)cccc5s4)C[C@@H]3C)cccc2[nH]1", "values": [{"measurement": "Ki", "setting": "[1]", "value": 0.92, "unit": "nM"}, {"measurement": "Emax", "setting": "[2]", "value": 3.15, "unit": "%"}, {"measurement": "Ki", "setting": "[3]", "value": 0.75, "unit": "nM"}]}, {"smiles": "Cc1cc2c(OC[C@@H](O)CN3CC[C@@H](c4cc5cc(Cl)ccc5s4)C[C@@H]3C)cccc2[nH]1", "values": [{"measurement": "Ki", "setting": "[1]", "value": 1.02, "unit": "nM"}, {"measurement": "Emax", "setting": "[2]", "value": 8.42, "unit": "%"}, {"measurement": "Ki", "setting": "[3]", "value": 15.7, "unit": "nM"}]}, {"smiles": "COc1cccc2sc([C@H]3C[C@H]4CC[C@@H](C3)N4C[C@H](O)COc3cccc4[nH]ccc34)cc12", "values": [{"measurement": "Ki", "setting": "[1]", "value": 0.17, "unit": "nM"}]}, {"smiles": "COc1cccc2sc([C@H]3C[C@H]4CC[C@@H](C3)N4C[C@H](O)COc3cccc4[nH]c(C)cc34)cc12", "values": [{"measurement": "Ki", "setting": "[1]", "value": 0.45, "unit": "nM"}, {"measurement": "Emax", "setting": "[2]", "value": 7.92, "unit": "%"}, {"measurement": "Ki", "setting": "[3]", "value": 20.9, "unit": "nM"}]}, {"smiles": "COc1cccc2sc([C@@H]3CCN(C[C@H](O)COc4cccc5[nH]c(C)cc45)[C@H](C)C3)cc12", "values": [{"measurement": "Ki", "setting": "[1]", "value": 29, "unit": "nM"}, {"measurement": "Emax", "setting": "[2]", "value": 1.8, "unit": "%"}, {"measurement": "Ki", "setting": "[3]", "value": 20.2, "unit": "nM"}]}, {"smiles": "Cc1cc2c(OC[C@@H](O)CN3CC[C@@H](c4cc5cccc(F)c5s4)C[C@@H]3C)cccc2[nH]1", "values": [{"measurement": "Ki", "setting": "[1]", "value": 1.29, "unit": "nM"}, {"measurement": "Emax", "setting": "[2]", "value": 4.09, "unit": "%"}, {"measurement": "Ki", "setting": "[3]", "value": 1.34, "unit": "nM"}]}, {"smiles": "COc1cccc2sc(C3CCN(C[C@H](O)COc4cccc5[nH]c(C)cc45)C(C)(C)C3)cc12", "note": "(stereo in doubt; 29)", "values": [{"measurement": "Ki", "setting": "[1]", "value": 20.5, "unit": "nM"}, {"measurement": "Ki", "setting": "[3]", "value": 42.8, "unit": "nM"}]}, {"smiles": "COc1cccc2sc(C3CCN(C[C@H](O)COc4cccc5[nH]c(C)cc45)C(C)(C)C3)cc12", "note": "(stereo in doubt; 28)", "values": [{"measurement": "Ki", "setting": "[1]", "value": 118, "unit": "nM"}, {"measurement": "Ki", "setting": "[3]", "value": 9.42, "unit": "nM"}]}, {"smiles": "COc1cccc2sc([C@@H]3CCN(C[C@H](O)COc4cccc5[nH]c(C(N)=O)cc45)[C@H](C)C3)cc12", "values": [{"measurement": "Ki", "setting": "[1]", "value": 16.2, "unit": "nM"}, {"measurement": "Emax", "setting": "[2]", "value": 7.21, "unit": "%"}, {"measurement": "Ki", "setting": "[3]", "value": 12.7, "unit": "nM"}]}, {"smiles": "COc1cccc2sc([C@@H]3C[C@H]4CC[C@@H](C3)N4C[C@H](O)COc3cccc4[nH]c(C)cc34)cc12", "values": [{"measurement": "Ki", "setting": "[1]", "value": 0.69, "unit": "nM"}, {"measurement": "Emax", "setting": "[2]", "value": 2.98, "unit": "%"}, {"measurement": "Ki", "setting": "[3]", "value": 9.2, "unit": "nM"}]}, {"smiles": "COc1ccc2cc([C@@H]3CCN(C[C@H](O)COc4cccc5[nH]c(C)cc45)[C@@H](C)C3)sc2c1", "values": [{"measurement": "Ki", "setting": "[1]", "value": 2.37, "unit": "nM"}, {"measurement": "Emax", "setting": "[2]", "value": 3.21, "unit": "%"}, {"measurement": "Ki", "setting": "[3]", "value": 13.5, "unit": "nM"}]}, {"smiles": "COc1cccc2sc([C@@H]3CCN(C[C@H](O)COc4cccc5[nH]c(C(N)=O)cc45)[C@@H](C)C3)cc12", "values": [{"measurement": "Ki", "setting": "[1]", "value": 0.56, "unit": "nM"}, {"measurement": "Emax", "setting": "[2]", "value": 12.8, "unit": "%"}, {"measurement": "Ki", "setting": "[3]", "value": 6.36, "unit": "nM"}]}, {"smiles": "COc1cccc2sc([C@@H]3CCN(C[C@H](O)COc4cccc5oc(C)cc45)[C@H](C)C3)cc12", "values": [{"measurement": "Ki", "setting": "[1]", "value": 110, "unit": "nM"}, {"measurement": "Ki", "setting": "[3]", "value": 4.84, "unit": "nM"}]}, {"smiles": "COc1cccc2sc([C@H]3CCN(C[C@H](O)COc4cccc5[nH]c(C)cc45)[C@H](C)C3)cc12", "values": [{"measurement": "Ki", "setting": "[1]", "value": 3.3, "unit": "nM"}, {"measurement": "Emax", "setting": "[2]", "value": 2.38, "unit": "%"}, {"measurement": "Ki", "setting": "[3]", "value": 28.1, "unit": "nM"}]}]}
